Assay results published in article PMC11167047 (Cell Death Discovery, 2024).

How the values were obtained:
Experiment in all cases: kinome screen (33PanQinase)
Type in all cases: biochemical
[1] = biological target: T1, PRKX (Homo sapiens, UniProt P51817)
T1 construct: purchased Reaction Biology Europe GmbH (formerly ProQinase)
T1 sequence (P51817 1-358): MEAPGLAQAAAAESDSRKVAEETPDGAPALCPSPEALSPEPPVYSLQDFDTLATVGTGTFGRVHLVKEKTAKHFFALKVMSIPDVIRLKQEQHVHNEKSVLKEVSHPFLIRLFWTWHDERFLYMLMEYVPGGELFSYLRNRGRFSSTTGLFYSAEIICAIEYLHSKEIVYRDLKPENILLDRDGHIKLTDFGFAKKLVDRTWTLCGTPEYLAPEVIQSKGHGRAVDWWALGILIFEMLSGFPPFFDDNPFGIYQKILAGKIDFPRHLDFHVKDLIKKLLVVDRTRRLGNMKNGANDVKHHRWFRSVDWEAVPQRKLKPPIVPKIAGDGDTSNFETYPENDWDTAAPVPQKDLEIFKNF
Procedure: (§1) The Kinome Screening was performed by Reaction Biology Europe GmbH (http://reactionbiology.com; Freiburg i. Br., Germany).

[2] = biological target: T2, ABL2 (Homo sapiens, UniProt P42684)
T2 construct: purchased Reaction Biology Europe GmbH (formerly ProQinase)
Procedure: as §1

[3] = biological target: T3, DAPK3 (Homo sapiens, UniProt O43293)
T3 construct: purchased Reaction Biology Europe GmbH (formerly ProQinase)
T3 sequence (O43293 whole entry): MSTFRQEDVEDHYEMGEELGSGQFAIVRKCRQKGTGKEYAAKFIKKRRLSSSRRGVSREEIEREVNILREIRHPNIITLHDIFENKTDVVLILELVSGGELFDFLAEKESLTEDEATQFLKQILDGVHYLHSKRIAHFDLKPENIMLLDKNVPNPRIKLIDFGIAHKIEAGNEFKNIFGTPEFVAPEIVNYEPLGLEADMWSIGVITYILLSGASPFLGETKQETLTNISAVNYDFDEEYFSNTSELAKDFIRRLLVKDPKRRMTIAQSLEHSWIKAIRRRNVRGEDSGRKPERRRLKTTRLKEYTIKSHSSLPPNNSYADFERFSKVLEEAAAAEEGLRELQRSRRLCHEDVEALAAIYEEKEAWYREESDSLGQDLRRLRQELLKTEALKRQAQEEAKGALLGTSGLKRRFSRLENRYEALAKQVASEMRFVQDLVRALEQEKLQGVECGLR
Procedure: as §1

[4] = biological target: T4, CAMK2B (Homo sapiens, UniProt Q13554)
T4 construct: purchased Reaction Biology Europe GmbH (formerly ProQinase)
T4 sequence (Q13554 whole entry): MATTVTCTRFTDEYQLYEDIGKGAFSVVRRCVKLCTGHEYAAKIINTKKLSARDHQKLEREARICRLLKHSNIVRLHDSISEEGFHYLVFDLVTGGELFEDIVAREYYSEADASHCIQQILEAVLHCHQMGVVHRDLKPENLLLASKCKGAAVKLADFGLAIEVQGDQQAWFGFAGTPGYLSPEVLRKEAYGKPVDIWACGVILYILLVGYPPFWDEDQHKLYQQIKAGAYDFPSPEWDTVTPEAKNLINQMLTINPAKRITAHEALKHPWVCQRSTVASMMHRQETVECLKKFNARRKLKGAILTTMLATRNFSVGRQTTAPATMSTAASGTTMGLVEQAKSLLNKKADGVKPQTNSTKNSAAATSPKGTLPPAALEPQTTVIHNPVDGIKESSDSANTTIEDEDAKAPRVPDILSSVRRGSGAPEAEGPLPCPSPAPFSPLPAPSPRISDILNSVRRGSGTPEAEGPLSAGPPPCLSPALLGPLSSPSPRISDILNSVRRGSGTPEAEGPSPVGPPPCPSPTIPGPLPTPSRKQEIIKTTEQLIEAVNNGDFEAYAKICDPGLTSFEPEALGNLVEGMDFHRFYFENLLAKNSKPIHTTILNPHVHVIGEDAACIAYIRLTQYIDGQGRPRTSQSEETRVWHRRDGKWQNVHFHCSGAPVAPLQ
Procedure: as §1

[5] = biological target: T5, CAMK4 (Homo sapiens, UniProt Q16566)
T5 construct: purchased Reaction Biology Europe GmbH (formerly ProQinase)
T5 sequence (Q16566 1-473): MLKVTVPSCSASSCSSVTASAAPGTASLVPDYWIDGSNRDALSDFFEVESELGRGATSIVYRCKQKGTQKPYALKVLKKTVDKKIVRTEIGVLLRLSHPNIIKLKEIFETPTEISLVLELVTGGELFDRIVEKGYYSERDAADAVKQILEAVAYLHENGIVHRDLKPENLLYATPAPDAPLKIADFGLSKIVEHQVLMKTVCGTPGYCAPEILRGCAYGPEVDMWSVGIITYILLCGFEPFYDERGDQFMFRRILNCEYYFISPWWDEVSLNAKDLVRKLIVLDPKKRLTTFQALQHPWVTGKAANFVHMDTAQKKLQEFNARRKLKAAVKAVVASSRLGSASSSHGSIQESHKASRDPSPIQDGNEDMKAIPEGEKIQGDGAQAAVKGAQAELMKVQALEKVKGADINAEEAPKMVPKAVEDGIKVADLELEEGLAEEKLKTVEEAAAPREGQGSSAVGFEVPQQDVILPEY
Procedure: as §1

[6] = biological target: T6, WEE1 (Homo sapiens, UniProt P30291)
T6 construct: purchased Reaction Biology Europe GmbH (formerly ProQinase)
T6 sequence (P30291 whole entry): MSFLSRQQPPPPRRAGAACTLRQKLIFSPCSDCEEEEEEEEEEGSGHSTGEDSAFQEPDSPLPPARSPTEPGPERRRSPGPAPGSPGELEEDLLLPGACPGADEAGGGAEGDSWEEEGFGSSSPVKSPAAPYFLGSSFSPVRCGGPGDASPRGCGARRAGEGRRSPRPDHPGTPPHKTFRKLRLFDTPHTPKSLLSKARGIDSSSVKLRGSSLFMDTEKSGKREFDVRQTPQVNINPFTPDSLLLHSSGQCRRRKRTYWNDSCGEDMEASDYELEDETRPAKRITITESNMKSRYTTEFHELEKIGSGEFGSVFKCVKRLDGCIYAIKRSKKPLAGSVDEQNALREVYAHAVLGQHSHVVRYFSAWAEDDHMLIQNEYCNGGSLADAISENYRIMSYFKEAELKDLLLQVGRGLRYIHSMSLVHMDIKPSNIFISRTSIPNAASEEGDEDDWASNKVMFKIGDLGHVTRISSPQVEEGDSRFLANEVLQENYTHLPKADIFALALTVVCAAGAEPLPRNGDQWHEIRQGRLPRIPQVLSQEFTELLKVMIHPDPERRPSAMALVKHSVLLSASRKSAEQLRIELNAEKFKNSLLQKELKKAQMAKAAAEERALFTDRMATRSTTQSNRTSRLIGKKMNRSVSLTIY
Procedure: as §1

[7] = biological target: T7, STK33 (Homo sapiens, UniProt Q9BYT3)
T7 construct: purchased Reaction Biology Europe GmbH (formerly ProQinase)
T7 sequence (Q9BYT3 whole entry): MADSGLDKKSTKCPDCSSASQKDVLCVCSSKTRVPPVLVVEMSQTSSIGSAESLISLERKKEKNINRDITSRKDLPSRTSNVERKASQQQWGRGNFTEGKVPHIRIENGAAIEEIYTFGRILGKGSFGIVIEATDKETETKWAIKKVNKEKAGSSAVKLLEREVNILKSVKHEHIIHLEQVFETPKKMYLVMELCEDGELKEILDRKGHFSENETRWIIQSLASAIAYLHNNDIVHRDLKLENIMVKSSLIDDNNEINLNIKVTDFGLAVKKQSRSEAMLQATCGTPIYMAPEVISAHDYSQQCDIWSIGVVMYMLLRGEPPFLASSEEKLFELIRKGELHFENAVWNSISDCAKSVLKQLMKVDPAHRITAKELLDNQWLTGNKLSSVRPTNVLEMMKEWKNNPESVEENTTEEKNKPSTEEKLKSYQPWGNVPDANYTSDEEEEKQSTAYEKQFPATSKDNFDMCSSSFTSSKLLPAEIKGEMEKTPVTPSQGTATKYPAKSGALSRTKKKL
Procedure: as §1

[8] = biological target: T8, PKCι (Homo sapiens, UniProt P41743)
T8 construct: purchased Reaction Biology Europe GmbH (formerly ProQinase)
T8 sequence (P41743 1-596): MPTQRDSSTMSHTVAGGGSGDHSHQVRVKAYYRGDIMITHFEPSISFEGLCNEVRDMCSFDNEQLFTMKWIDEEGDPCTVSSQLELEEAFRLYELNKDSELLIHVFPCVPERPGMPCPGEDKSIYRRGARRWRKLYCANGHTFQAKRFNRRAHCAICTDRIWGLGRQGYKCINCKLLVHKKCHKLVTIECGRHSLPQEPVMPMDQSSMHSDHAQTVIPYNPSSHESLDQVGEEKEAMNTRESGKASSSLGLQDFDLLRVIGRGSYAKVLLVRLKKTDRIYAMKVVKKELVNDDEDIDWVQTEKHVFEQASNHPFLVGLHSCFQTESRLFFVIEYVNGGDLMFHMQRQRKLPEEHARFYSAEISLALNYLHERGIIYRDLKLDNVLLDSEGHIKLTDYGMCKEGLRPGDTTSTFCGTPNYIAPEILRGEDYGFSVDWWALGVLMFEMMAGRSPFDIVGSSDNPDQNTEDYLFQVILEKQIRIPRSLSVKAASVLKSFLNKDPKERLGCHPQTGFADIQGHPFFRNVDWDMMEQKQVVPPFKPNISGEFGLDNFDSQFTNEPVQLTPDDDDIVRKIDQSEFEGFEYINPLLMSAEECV
Procedure: as §1

[9] = biological target: T9, CDK1/CycE1 (Homo sapiens, UniProt P06493)
T9 construct: purchased Reaction Biology Europe GmbH (formerly ProQinase)
Procedure: as §1

[10] = biological target: T10, CK1α1 (Homo sapiens, UniProt P48729)
T10 construct: purchased Reaction Biology Europe GmbH (formerly ProQinase)
T10 sequence (P48729 whole entry): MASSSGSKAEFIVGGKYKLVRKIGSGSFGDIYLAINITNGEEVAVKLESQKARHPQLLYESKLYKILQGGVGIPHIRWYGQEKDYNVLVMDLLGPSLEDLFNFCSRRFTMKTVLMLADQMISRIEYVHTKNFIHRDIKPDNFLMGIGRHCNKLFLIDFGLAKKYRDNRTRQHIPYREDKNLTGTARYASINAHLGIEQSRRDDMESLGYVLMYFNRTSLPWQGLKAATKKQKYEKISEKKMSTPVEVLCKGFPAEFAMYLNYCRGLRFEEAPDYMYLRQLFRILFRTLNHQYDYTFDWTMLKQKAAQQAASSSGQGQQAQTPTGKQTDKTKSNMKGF
Procedure: as §1

[11] = biological target: T11, CDK13/CycK (Homo sapiens, UniProt Q14004)
T11 construct: purchased Reaction Biology Europe GmbH (formerly ProQinase)
Procedure: as §1

[12] = biological target: T12, SLK (Homo sapiens, UniProt Q9H2G2)
T12 construct: purchased Reaction Biology Europe GmbH (formerly ProQinase)
T12 sequence (Q9H2G2 whole entry): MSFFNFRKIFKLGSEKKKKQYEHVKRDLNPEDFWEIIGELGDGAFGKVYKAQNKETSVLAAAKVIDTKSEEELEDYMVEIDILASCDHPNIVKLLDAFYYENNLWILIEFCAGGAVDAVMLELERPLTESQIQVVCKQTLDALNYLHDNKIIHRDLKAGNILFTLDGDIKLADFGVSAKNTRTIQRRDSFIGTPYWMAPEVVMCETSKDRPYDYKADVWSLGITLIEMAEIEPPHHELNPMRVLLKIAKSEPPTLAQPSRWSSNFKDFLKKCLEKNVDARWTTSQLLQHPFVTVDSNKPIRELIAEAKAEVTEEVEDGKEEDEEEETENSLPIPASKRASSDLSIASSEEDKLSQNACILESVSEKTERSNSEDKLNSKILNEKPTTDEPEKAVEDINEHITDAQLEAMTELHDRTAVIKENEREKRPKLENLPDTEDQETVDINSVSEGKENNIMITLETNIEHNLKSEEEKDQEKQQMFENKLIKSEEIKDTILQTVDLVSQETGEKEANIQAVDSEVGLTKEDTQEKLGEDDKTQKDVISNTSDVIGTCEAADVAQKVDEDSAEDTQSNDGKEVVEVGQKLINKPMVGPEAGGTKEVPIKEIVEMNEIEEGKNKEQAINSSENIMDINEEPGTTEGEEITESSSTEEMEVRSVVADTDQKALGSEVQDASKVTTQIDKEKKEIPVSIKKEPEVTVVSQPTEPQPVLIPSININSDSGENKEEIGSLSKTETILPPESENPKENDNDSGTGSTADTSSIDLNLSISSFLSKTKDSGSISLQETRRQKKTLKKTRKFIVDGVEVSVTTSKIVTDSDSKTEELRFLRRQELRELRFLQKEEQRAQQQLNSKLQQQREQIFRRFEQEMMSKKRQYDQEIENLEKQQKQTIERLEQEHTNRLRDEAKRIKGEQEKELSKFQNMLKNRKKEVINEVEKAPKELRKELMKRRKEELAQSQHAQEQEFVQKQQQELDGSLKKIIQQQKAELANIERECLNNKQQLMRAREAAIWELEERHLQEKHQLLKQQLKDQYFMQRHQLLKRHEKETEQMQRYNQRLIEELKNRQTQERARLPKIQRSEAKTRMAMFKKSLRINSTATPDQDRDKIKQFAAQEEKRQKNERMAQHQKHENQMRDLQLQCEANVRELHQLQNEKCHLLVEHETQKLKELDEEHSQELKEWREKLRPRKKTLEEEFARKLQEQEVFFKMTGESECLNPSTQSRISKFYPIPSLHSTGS
Procedure: as §1

[13] = biological target: T13, MAP3K9 (Homo sapiens, UniProt P80192)
T13 construct: purchased Reaction Biology Europe GmbH (formerly ProQinase)
T13 sequence (P80192 whole entry): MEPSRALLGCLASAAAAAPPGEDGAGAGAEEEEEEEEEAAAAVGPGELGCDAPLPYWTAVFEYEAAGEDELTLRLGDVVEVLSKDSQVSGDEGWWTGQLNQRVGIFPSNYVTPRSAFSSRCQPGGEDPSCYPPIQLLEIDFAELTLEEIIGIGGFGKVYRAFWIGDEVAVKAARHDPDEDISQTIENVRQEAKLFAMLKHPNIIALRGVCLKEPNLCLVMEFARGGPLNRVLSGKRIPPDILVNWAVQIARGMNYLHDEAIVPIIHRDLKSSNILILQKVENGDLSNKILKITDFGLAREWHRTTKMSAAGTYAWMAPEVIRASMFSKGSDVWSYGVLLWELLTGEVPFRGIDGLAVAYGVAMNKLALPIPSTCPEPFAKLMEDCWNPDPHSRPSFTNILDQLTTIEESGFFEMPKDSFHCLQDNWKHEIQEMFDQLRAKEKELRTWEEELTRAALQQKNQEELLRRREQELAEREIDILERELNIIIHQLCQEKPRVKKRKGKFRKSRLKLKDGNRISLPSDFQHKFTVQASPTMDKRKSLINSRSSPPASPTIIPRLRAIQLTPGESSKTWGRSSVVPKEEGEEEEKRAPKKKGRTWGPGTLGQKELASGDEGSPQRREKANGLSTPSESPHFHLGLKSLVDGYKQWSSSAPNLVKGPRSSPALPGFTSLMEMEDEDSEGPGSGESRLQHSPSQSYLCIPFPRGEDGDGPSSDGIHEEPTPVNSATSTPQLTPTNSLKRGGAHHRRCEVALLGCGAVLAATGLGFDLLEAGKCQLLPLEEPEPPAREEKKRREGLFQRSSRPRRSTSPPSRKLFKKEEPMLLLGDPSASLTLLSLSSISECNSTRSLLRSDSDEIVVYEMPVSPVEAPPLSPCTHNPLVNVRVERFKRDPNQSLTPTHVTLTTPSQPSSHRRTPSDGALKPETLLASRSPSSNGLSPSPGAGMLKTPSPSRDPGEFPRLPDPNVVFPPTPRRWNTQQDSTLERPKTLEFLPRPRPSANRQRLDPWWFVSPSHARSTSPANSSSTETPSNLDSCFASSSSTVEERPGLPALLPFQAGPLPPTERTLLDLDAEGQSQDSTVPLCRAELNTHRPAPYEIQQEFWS
Procedure: as §1

[14] = biological target: T14, DYRK1A (Homo sapiens, UniProt Q13627)
T14 construct: purchased Reaction Biology Europe GmbH (formerly ProQinase)
Procedure: as §1

[15] = biological target: T15, MKK4 (Homo sapiens, UniProt P45985)
T15 construct: purchased Reaction Biology Europe GmbH (formerly ProQinase)
T15 sequence (P45985 1-399): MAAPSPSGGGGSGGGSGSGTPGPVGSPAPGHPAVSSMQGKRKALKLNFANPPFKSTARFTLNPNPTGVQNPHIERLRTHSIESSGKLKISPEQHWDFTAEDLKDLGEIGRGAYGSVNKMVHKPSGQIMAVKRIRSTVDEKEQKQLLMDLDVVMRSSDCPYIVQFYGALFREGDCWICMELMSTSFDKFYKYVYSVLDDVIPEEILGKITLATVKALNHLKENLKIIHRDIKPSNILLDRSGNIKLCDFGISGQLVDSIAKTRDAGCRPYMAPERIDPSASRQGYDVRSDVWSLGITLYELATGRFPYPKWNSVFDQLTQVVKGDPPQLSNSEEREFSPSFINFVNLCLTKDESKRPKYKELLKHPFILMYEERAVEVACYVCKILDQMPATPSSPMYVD
Procedure: as §1

For c1ccc(CNc2cc(-c3c[nH]c4ncccc34)ccn2)cc1 [meriolin 36], the residual kinase activity ([1]; 0.3 µM) was 15 % of control, the residual kinase activity ([1]; 3 µM) was -1 % of control and the residual kinase activity ([2]; 0.3 µM) was 56 % of control. For the same compound, the residual kinase activity ([2]; 3 µM) was 18 % of control, the residual kinase activity ([3]; 0.3 µM) was 80 % of control and the residual kinase activity ([3]; 3 µM) was 25 % of control. For the same compound, the residual kinase activity ([4]; 0.3 µM) was 83 % of control, the residual kinase activity ([4]; 3 µM) was 31 % of control and the residual kinase activity ([5]; 0.3 µM) was 92 % of control. For the same compound, the residual kinase activity ([5]; 3 µM) was 73 % of control, the residual kinase activity ([6]; 0.3 µM) was 72 % of control and the residual kinase activity ([6]; 3 µM) was 37 % of control. The residual kinase activity ([7]; 0.3 µM) was 41 % of control, the residual kinase activity ([7]; 3 µM) was 14 % of control and the residual kinase activity ([8]; 0.3 µM) was 75 % of control. For the same compound, the residual kinase activity ([8]; 3 µM) was 32 % of control, the residual kinase activity ([9]; 0.3 µM) was 2 % of control and the residual kinase activity ([9]; 3 µM) was 0 % of control. The residual kinase activity ([10]; 0.3 µM) was 110 % of control, the residual kinase activity ([10]; 3 µM) was 51 % of control and the residual kinase activity ([11]; 0.3 µM) was 12 % of control. The residual kinase activity ([11]; 3 µM) was -10 % of control, the residual kinase activity ([12]; 0.3 µM) was 4 % of control and the residual kinase activity ([12]; 3 µM) was 1 % of control. For the same compound, the residual kinase activity ([13]; 0.3 µM) was 57 % of control, the residual kinase activity ([13]; 3 µM) was 12 % of control and the residual kinase activity ([14]; 0.3 µM) was 7 % of control. The residual kinase activity ([14]; 3 µM) was 0 % of control, the residual kinase activity ([15]; 0.3 µM) was 45 % of control and the residual kinase activity ([15]; 3 µM) was 9 % of control.

With COc1ccnc2[nH]cc(-c3cc(N)nc(N)c3)c12 [meriolin 16] the residual kinase activity ([1]; 0.03 µM) was 54 % of control, the residual kinase activity ([1]; 0.3 µM) was 3 % of control and the residual kinase activity ([2]; 0.03 µM) was 95 % of control. For the same compound, the residual kinase activity ([2]; 0.3 µM) was 91 % of control, the residual kinase activity ([3]; 0.03 µM) was 98 % of control and the residual kinase activity ([3]; 0.3 µM) was 51 % of control. For the same compound, the residual kinase activity ([4]; 0.03 µM) was 103 % of control, the residual kinase activity ([4]; 0.3 µM) was 74 % of control and the residual kinase activity ([5]; 0.03 µM) was 96 % of control. The residual kinase activity ([5]; 0.3 µM) was 92 % of control, the residual kinase activity ([6]; 0.03 µM) was 80 % of control and the residual kinase activity ([6]; 0.3 µM) was 99 % of control. For the same compound, the residual kinase activity ([7]; 0.03 µM) was 73 % of control, the residual kinase activity ([7]; 0.3 µM) was 43 % of control and the residual kinase activity ([8]; 0.03 µM) was 105 % of control. For the same compound, the residual kinase activity ([8]; 0.3 µM) was 94 % of control, the residual kinase activity ([9]; 0.03 µM) was 42 % of control and the residual kinase activity ([9]; 0.3 µM) was 8 % of control. The residual kinase activity ([10]; 0.03 µM) was 129 % of control, the residual kinase activity ([10]; 0.3 µM) was 93 % of control and the residual kinase activity ([11]; 0.03 µM) was 31 % of control. The residual kinase activity ([11]; 0.3 µM) was 5 % of control, the residual kinase activity ([12]; 0.03 µM) was 83 % of control and the residual kinase activity ([12]; 0.3 µM) was 77 % of control. The residual kinase activity ([13]; 0.03 µM) was 95 % of control, the residual kinase activity ([13]; 0.3 µM) was 80 % of control and the residual kinase activity ([14]; 0.03 µM) was 11 % of control. For the same compound, the residual kinase activity ([14]; 0.3 µM) was 2 % of control, the residual kinase activity ([15]; 0.03 µM) was 86 % of control and the residual kinase activity ([15]; 0.3 µM) was 66 % of control.
